Log reduction data for two compounds are collected here from US12419305B2, “Antimicrobial compositions” (Firmenich SA, priority 2018, dated 2025).

The test deals with E. coli ATCC 10536. As to the kind of experiment: BCT test (bacterial contact time), 45 s, log reduction / effect fraction; CI by Compusyn. It is filed as cell-based, Escherichia coli. Particulars: Escherichia coli, ATCC10536, 45 s, 45 s, in 20% EtOH. In outline: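 Log-phase cultures (OD600 1-2) were resuspended in TSB at about 1×10^8 bacteria/mL and mixed 1:1 with ethanolic perfume combinations or single ingredients, five replicates each. After the stated contact time, serial dilutions were grown at 37° C and viable counts derived from OD600 turbidity; log reduction is versus ethanol control.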

As to `O=c1ccc2ccccc2o1` [Coumarine, 2H-chromen-2-one], the log reduction at 0.5 % strength (dose 0.500 % w/v) is -0.1. For the same compound, for the setting “dose 0.600 % w/v, read-out: Log reduction”, the log reduction at 0.6 % strength is 0.2. For the same compound, the log reduction at 0.65 % strength (dose 0.650 % w/v) amounted to 0.5. Under “dose 0.700 % w/v”, the log reduction at 0.7 % strength turned out to be 2.8. Further, the log reduction at 0.8 % strength (dose 0.800 % w/v) is 7.3.
As to `CC1=CCC(C(C)(C)O)CC1` (stereo not shown) [Terpineol Ord, 2-(4-Methylcyclohex-3-en-1-yl)propan-2-ol], for the setting “dose 0.100 % w/v, read-out: Log reduction”, the log reduction at 0.1 % strength turned out to be 0.1. Also, the log reduction at 0.11 % strength (dose 0.110 % w/v) was 0.3. Besides, for the setting “dose 0.125 % w/v”, the log reduction at 0.125 % strength came to 1.3. Moreover, the log reduction at 0.15 % strength (dose 0.150 % w/v) turned out to be 3.8. Besides, the log reduction at 0.2 % strength (dose 0.200 % w/v) was found to be 7.4.
